Article PMC11983102, “Conjugation to a transferrin receptor 1-binding Bicycle peptide enhances ASO and siRNA potency in skeletal and cardiac muscles” (Nucleic Acids Research, 2025)
Numbered stars: 1 amine (or outer) side, 2 acyl side, 3 side chain; on linkers, the order of the positions; unused ones are H or OH. Bridge positions count the residues as written; N and C are the ends. Peptide text beside a SMILES is read from it. TATB = O=C(C[*:1])N1CN(C(=O)C[*:2])CN(C(=O)C[*:3])C1

Tests used:
[1] = target: T1, human TfR1 (Homo sapiens, UniProt P02786); assay: SPR binding of Bicycle peptides and conjugates to human TfR1; settings: SPR (Biacore), human TfR1 captured on SA chip, 5-point single cycle kinetics, PBS-P+ 1% DMSO pH 7.4; geometric mean; unconjugated Bicycle peptides
T1 construct: received from Bicycle Therapeutics as His6-tagged TfR1 (a.a. 89-760) (ACROBiosystems, CD1-H5243 and TfR-C524a); His6; purchased ACROBiosystems CD1-H5243
T1 sequence (P02786 89-760): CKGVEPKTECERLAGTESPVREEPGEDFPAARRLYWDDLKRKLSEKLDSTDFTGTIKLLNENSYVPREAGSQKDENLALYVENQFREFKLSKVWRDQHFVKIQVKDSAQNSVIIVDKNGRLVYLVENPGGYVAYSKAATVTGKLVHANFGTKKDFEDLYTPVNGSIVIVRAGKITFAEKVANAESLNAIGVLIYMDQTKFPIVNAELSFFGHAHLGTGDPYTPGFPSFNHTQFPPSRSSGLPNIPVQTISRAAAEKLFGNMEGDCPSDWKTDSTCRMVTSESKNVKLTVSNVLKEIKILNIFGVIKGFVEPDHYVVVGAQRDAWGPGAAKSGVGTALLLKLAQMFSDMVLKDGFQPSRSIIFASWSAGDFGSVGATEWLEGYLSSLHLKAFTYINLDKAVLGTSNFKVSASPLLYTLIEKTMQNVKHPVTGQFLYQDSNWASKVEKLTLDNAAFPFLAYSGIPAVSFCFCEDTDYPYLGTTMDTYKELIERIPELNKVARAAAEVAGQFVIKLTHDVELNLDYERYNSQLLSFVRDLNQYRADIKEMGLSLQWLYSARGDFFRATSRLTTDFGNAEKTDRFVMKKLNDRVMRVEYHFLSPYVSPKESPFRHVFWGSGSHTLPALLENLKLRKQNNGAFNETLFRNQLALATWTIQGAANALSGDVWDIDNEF
Experimental: Biacore experiments were performed to determine ka (M^-1s^-1), kd (s^-1), KD (nM) values of various peptides binding to TfR1. […] SPR binding analysis was performed on Biacore T200 and Biacore 8K+ (Cytiva). Human TfR1 and randomly biotinylated cynomolgus monkey TfR1 were captured on Series S Sensor Chip SA (BR100531, Cytiva) at levels of approximately 1000 RU. Using an appropriate top concentration, Bicycle peptides were screened in a 5-point titration curve in single cycle kinetics format at 30 ml/minute. The running buffer was PBS-P^+, 1% DMSO at pH 7.4. The data was solvent-corrected for DMSO bulk effects. In addition, all data was double corrected against the reference flow cell and matched buffer blanks. Data processing and kinetic fitting were performed using Biacore T200 Evaluation Software or Biacore Insight Evaluation. The data was fitted using the 1:1 binding model or steady-state affinity model where appropriate. The geometric mean (geomean) KD (nM) for binders was calculated by transforming unique KD values by log10, arithmetic-mean-averaging the transformed values, and subsequently anti-log-transforming the averaged value.

[2] = Mouse plasma stability; type: in vitro ADME
Experimental: An alanine scan was performed to identify core residues involved in binding to the protein and solvent-facing residues which could be used to tune molecular properties, followed by substitutions with non-natural amino acids to identify suitable replacements at each position. In addition, peptides were synthesized to investigate the removal of the N- and C-terminal alanines, capping the N-terminal with an acetyl group, and to examine the effects of combinations with N- and C-terminal extensions. Affinity was measured using either SPR or fluorescence polarization (FP) assays, and plasma stability in mouse was determined for selected examples. Series of analogues with the azidolysine (K(N3)) or azidopropanoic acid (AzPro) were prepared on the C- and N-terminal of the Bicycle molecules, respectively. These were used to conjugate to an ASO or siRNA for further profiling.

Row | SMILES | Kd [1] [nM] | half-life [2] [h]
1 | CC[C@H](C)[C@@H]1NC(=O)[C@@H]2CSCC(=O)N3CN(CN(C3)C(=O)CSC[C@@H](C(=O)N[C@@H](C)C(N)=O)NC(=O)[C@H](Cc3ccc(O)cc3)NC(=O)[C@H](CO)NC1=O)C(=O)CSC[C@H](NC(=O)[C@H](C)N)C(=O)N[C@@H](CO)C(=O)N1CCC[C@H]1C(=O)N[C@@H](CC(=O)O)C(=O)N[C@@H](C)C(=O)N[C@@H](Cc1c[nH]cn1)C(=O)N[C@@H](CC(C)C)C(=O)NCC(=O)N2 [BCY15468] | 143 | –
2 | CC[C@H](C)[C@@H]1NC(=O)[C@@H]2CSCC(=O)N3CN(CN(C3)C(=O)CSC[C@H](NC(C)=O)C(=O)N[C@@H](CO)C(=O)N3CCC[C@H]3C(=O)N[C@@H](CC(=O)O)C(=O)N[C@@H](C)C(=O)N[C@@H](Cc3c[nH]cn3)C(=O)N[C@@H](CC(C)C)C(=O)NCC(=O)N2)C(=O)CSC[C@@H](C(N)=O)NC(=O)[C@H](Cc2ccc(O)cc2)NC(=O)[C@H](CO)NC1=O [BCY15891] (Ac-CSPDAHLGCISYC-NH2; linker 1-9-13 via TATB) | – | 22.7
3 | CC[C@H](C)[C@@H]1NC(=O)[C@@H]2CSCC(=O)N3CN(CN(C3)C(=O)CSC[C@@H](C(=O)N[C@@H](C)C(N)=O)NC(=O)[C@H](Cc3cccc4ccccc34)NC(=O)[C@H](CO)NC1=O)C(=O)CSC[C@H](NC(=O)[C@H](C)N)C(=O)N[C@@H](CO)C(=O)N1CCC[C@H]1C(=O)N[C@@H](CC(=O)O)C(=O)N[C@@H](C)C(=O)N[C@@H](Cc1c[nH]cn1)C(=O)N[C@@H](CC(C)C)C(=O)NCC(=O)N2 [compound 16029] | 60 | –
4 | CC[C@H](C)[C@@H]1NC(=O)[C@@H]2CSCC(=O)N3CN(CN(C3)C(=O)CSC[C@@H](C(=O)N[C@@H](C)C(N)=O)NC(=O)[C@H](Cc3ccc4ccccc4c3)NC(=O)[C@H](CO)NC1=O)C(=O)CSC[C@H](NC(=O)[C@H](C)N)C(=O)N[C@@H](CO)C(=O)N1CCC[C@H]1C(=O)N[C@@H](CC(=O)O)C(=O)N[C@@H](C)C(=O)N[C@@H](Cc1c[nH]cn1)C(=O)N[C@@H](CC(C)C)C(=O)NCC(=O)N2 [compound 16031] | 68 | –
5 | CC[C@H](C)[C@@H]1NC(=O)[C@@H]2CSCC(=O)N3CN(CN(C3)C(=O)CSC[C@@H](C(=O)N[C@@H](C)C(N)=O)NC(=O)[C@H](Cc3ccc(O)cc3)NC(=O)[C@H](CO)NC1=O)C(=O)CSC[C@H](NC(=O)[C@H](C)N)C(=O)N[C@@H](CO)C(=O)N1C[C@H](O)C[C@H]1C(=O)N[C@@H](CC(=O)O)C(=O)N[C@@H](C)C(=O)N[C@@H](Cc1c[nH]cn1)C(=O)N[C@@H](CC(C)C)C(=O)NCC(=O)N2 [compound 16047] | 49 | –
